For four molecules, relative viability results are on record in the supplement of paper PMC10307832.

Molecules are shown by their SMILES.

The first assay deals with LOU-NH91. Nature of the assay: relative viability (nuclei count vs DMSO), 5 days (fraction); higher = more cells survive. The conditions noted are these: first compound 0.6325 µM. The method in brief: (§1)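 Values are medians from duplicate plates. Each reflects relative viability, defined as the nuclei count of treated wells over that of vehicle wells. Lung cancer cell lines in 1536-well plates were pin-tool dosed one day after seeding with one drug alone or with a fixed anchor-drug dose plus five library-drug doses (not always all listed) in √10 steps, then fixed, stained and imaged at 4× after 5 days.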
Regarding `COCC1(CO)C(=O)C2CCN1CC2` (stereo not given) [PRIMA-1MET] + CS(=O)(=O)N1CCN(Cc2cc3nc(-c4cccc5[nH]ncc45)nc(N4CCOCC4)c3s2)CC1 [Pictilisib] (partner 1 µM), the relative viability turned out to be 0.474.

`COCC1(CO)C(=O)C2CCN1CC2` (stereo not given) [PRIMA-1MET] + CCNC(=O)c1noc(-c2cc(C(C)C)c(O)cc2O)c1-c1ccc(CN2CCOCC2)cc1 [Luminespib] (partner 0.01 µM) yielded a relative viability of 0.353.

Turning to `COCC1(CO)C(=O)C2CCN1CC2` (stereo not given) [PRIMA-1MET] + CC(=O)c1c(C)c2cnc(Nc3ccc(N4CCNCC4)cn3)nc2n(C2CCCC2)c1=O [Palbociclib] (partner 0.5 µM), the relative viability stood at 0.514.

Take `COCC1(CO)C(=O)C2CCN1CC2` (stereo not given) [PRIMA-1MET] + Cc1nc(Nc2ncc(C(=O)Nc3c(C)cccc3Cl)s2)cc(N2CCN(CCO)CC2)n1 [Dasatinib] (partner 0.075 µM): the relative viability is 0.508.

Still in this assay, the particulars now being: first compound 2 µM.
`COCC1(CO)C(=O)C2CCN1CC2` (stereo not given) [PRIMA-1MET] + CS(=O)(=O)N1CCN(Cc2cc3nc(-c4cccc5[nH]ncc45)nc(N4CCOCC4)c3s2)CC1 [Pictilisib] (partner 1 µM) displayed a relative viability of 0.458.

Take `COCC1(CO)C(=O)C2CCN1CC2` (stereo not given) [PRIMA-1MET] + CCNC(=O)c1noc(-c2cc(C(C)C)c(O)cc2O)c1-c1ccc(CN2CCOCC2)cc1 [Luminespib] (partner 0.01 µM): the relative viability is 0.365.

As for `COCC1(CO)C(=O)C2CCN1CC2` (stereo not given) [PRIMA-1MET] + CC(=O)c1c(C)c2cnc(Nc3ccc(N4CCNCC4)cn3)nc2n(C2CCCC2)c1=O [Palbociclib] (partner 0.5 µM), the relative viability was determined as 0.54.

With `COCC1(CO)C(=O)C2CCN1CC2` (stereo not given) [PRIMA-1MET] + Cc1nc(Nc2ncc(C(=O)Nc3c(C)cccc3Cl)s2)cc(N2CCN(CCO)CC2)n1 [Dasatinib] (partner 0.075 µM), the relative viability was determined as 0.569.

Still in this assay, the particulars now being: first compound 6.325 µM.
Turning to `COCC1(CO)C(=O)C2CCN1CC2` (stereo not given) [PRIMA-1MET] + CS(=O)(=O)N1CCN(Cc2cc3nc(-c4cccc5[nH]ncc45)nc(N4CCOCC4)c3s2)CC1 [Pictilisib] (partner 1 µM), the relative viability stood at 0.467.

Take `COCC1(CO)C(=O)C2CCN1CC2` (stereo not given) [PRIMA-1MET] + CCNC(=O)c1noc(-c2cc(C(C)C)c(O)cc2O)c1-c1ccc(CN2CCOCC2)cc1 [Luminespib] (partner 0.01 µM): the relative viability turned out to be 0.42.

`COCC1(CO)C(=O)C2CCN1CC2` (stereo not given) [PRIMA-1MET] + CC(=O)c1c(C)c2cnc(Nc3ccc(N4CCNCC4)cn3)nc2n(C2CCCC2)c1=O [Palbociclib] (partner 0.5 µM) returned a relative viability of 0.508.

`COCC1(CO)C(=O)C2CCN1CC2` (stereo not given) [PRIMA-1MET] + Cc1nc(Nc2ncc(C(=O)Nc3c(C)cccc3Cl)s2)cc(N2CCN(CCO)CC2)n1 [Dasatinib] (partner 0.075 µM) came in with a relative viability of 0.578.

The assay is the same for the next values; noted with them: first compound 20 µM.
Turning to `COCC1(CO)C(=O)C2CCN1CC2` (stereo not given) [PRIMA-1MET] + CS(=O)(=O)N1CCN(Cc2cc3nc(-c4cccc5[nH]ncc45)nc(N4CCOCC4)c3s2)CC1 [Pictilisib] (partner 1 µM), the relative viability was 0.366.

In turn, `COCC1(CO)C(=O)C2CCN1CC2` (stereo not given) [PRIMA-1MET] + CCNC(=O)c1noc(-c2cc(C(C)C)c(O)cc2O)c1-c1ccc(CN2CCOCC2)cc1 [Luminespib] (partner 0.01 µM) had a relative viability of 0.265.

In turn, `COCC1(CO)C(=O)C2CCN1CC2` (stereo not given) [PRIMA-1MET] + CC(=O)c1c(C)c2cnc(Nc3ccc(N4CCNCC4)cn3)nc2n(C2CCCC2)c1=O [Palbociclib] (partner 0.5 µM) came in with a relative viability of 0.452.

`COCC1(CO)C(=O)C2CCN1CC2` (stereo not given) [PRIMA-1MET] + Cc1nc(Nc2ncc(C(=O)Nc3c(C)cccc3Cl)s2)cc(N2CCN(CCO)CC2)n1 [Dasatinib] (partner 0.075 µM) returned a relative viability of 0.483.

Another assay has as its system HOP-62. The description is as above. The conditions noted are these: first compound 0.2 µM. In a few lines:
as §1
With `COCC1(CO)C(=O)C2CCN1CC2` (stereo not given) [PRIMA-1MET] + CS(=O)(=O)N1CCN(Cc2cc3nc(-c4cccc5[nH]ncc45)nc(N4CCOCC4)c3s2)CC1 [Pictilisib] (partner 1 µM), the relative viability came out at 0.442.

As for `COCC1(CO)C(=O)C2CCN1CC2` (stereo not given) [PRIMA-1MET] + CCNC(=O)c1noc(-c2cc(C(C)C)c(O)cc2O)c1-c1ccc(CN2CCOCC2)cc1 [Luminespib] (partner 0.01 µM), the relative viability came out at 0.989.

Consider `COCC1(CO)C(=O)C2CCN1CC2` (stereo not given) [PRIMA-1MET] + CC(=O)c1c(C)c2cnc(Nc3ccc(N4CCNCC4)cn3)nc2n(C2CCCC2)c1=O [Palbociclib] (partner 0.5 µM), for which the relative viability was found to be 0.549.

Consider `COCC1(CO)C(=O)C2CCN1CC2` (stereo not given) [PRIMA-1MET] + Cc1nc(Nc2ncc(C(=O)Nc3c(C)cccc3Cl)s2)cc(N2CCN(CCO)CC2)n1 [Dasatinib] (partner 0.075 µM), for which the relative viability stood at 0.637.

The same assay, now with this note: first compound 0.6325 µM.
Turning to `COCC1(CO)C(=O)C2CCN1CC2` (stereo not given) [PRIMA-1MET] + CS(=O)(=O)N1CCN(Cc2cc3nc(-c4cccc5[nH]ncc45)nc(N4CCOCC4)c3s2)CC1 [Pictilisib] (partner 1 µM), the relative viability was determined as 0.465.

In turn, `COCC1(CO)C(=O)C2CCN1CC2` (stereo not given) [PRIMA-1MET] + CCNC(=O)c1noc(-c2cc(C(C)C)c(O)cc2O)c1-c1ccc(CN2CCOCC2)cc1 [Luminespib] (partner 0.01 µM) returned a relative viability of 0.923.

On to `COCC1(CO)C(=O)C2CCN1CC2` (stereo not given) [PRIMA-1MET] + CC(=O)c1c(C)c2cnc(Nc3ccc(N4CCNCC4)cn3)nc2n(C2CCCC2)c1=O [Palbociclib] (partner 0.5 µM), for which the relative viability came to 0.385.

The molecule `COCC1(CO)C(=O)C2CCN1CC2` (stereo not given) [PRIMA-1MET] + Cc1nc(Nc2ncc(C(=O)Nc3c(C)cccc3Cl)s2)cc(N2CCN(CCO)CC2)n1 [Dasatinib] (partner 0.075 µM) registered a relative viability of 0.7.

Staying with this assay, now noted: first compound 2 µM.
For the molecule `COCC1(CO)C(=O)C2CCN1CC2` (stereo not given) [PRIMA-1MET] + CS(=O)(=O)N1CCN(Cc2cc3nc(-c4cccc5[nH]ncc45)nc(N4CCOCC4)c3s2)CC1 [Pictilisib] (partner 1 µM), the relative viability was 0.368.
